Consider 4 compounds from ChEMBL document CHEMBL1152073, “Synthesis of novel fluorescently labeled sphingomyelin derivatives useful for sphingomyelinase assay” (Bioorg Med Chem Lett, 1997).

Each structure is given as a SMILES string.

The assay deals with T1, Sphingomyelin phosphodiesterase (Homo sapiens) (UniProt P17405).
T1 sequence (whole entry): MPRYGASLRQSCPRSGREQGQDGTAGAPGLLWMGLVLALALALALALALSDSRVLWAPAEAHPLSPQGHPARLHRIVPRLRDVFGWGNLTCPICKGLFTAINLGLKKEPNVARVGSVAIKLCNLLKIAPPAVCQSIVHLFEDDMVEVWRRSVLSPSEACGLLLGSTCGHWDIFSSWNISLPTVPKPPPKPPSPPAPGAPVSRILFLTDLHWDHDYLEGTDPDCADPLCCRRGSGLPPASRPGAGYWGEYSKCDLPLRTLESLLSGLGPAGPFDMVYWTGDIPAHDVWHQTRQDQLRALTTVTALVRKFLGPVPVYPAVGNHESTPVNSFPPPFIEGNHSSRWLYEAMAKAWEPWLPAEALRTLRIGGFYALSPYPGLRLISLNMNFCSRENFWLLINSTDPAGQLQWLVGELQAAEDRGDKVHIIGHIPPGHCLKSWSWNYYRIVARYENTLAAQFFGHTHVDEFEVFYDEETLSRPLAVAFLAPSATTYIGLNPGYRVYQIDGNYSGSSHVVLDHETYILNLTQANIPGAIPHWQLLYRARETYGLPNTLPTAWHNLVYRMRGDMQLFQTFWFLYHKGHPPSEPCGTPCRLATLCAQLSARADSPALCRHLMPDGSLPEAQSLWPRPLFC
In words: Compound was evaluated as a substrate for human placental acidic sphingomyelinase utilizing the usual substrate C14-labeled sphingomyelin.
For the compound `CCCCCCCCCCCCC/C=C/[C@@H](O)[C@H](COP(=O)(O)OCC[N+](C)(C)CCNS(=O)(=O)c1cccc2c(N(C)C)cccc12)NC(=O)CCCCCCCCCCCCCCCCCCC`, the Cleavage rate was 1.32 nM U-1 hr-1.
With `CCCCCCCCCCCCC/C=C/[C@@H](O)[C@H](COP(=O)([O-])OCC[N+](C)(C)C)NC(=O)CCCCCCCCCCCCCCCCCCC` the figure was 1.72 nM U-1 hr-1; with `CCCCCCCCCCCCC/C=C/[C@@H](O)[C@H](COP(=O)(O)OCCCCNS(=O)(=O)c1cccc2c(N(C)C)cccc12)NC(=O)CCCCCNC(=O)CCCC[C@@H]1SC[C@@H]2NC(=O)N[C@@H]21`, 0.51 nM U-1 hr-1.
`CCCCCCCCCCCCC/C=C/[C@@H](O)[C@H](COP(=O)(O)OCCCCCCNc1ccc([N+](=O)[O-])c2nonc12)NC(=O)CCCCCNC(=O)CCCC[C@@H]1SC[C@@H]2NC(=O)N[C@@H]21`: the Cleavage rate worked out at 0.29 nM U-1 hr-1.
